Results reported in ChEMBL document CHEMBL5543167, “Design, Synthesis, and Biological Evaluation of Novel EGFR PROTACs Targeting C797S Mutation” (J Med Chem, 2024).
pIC50: −log10 of the molar value. Calls of active or inactive are those of the source. The rule behind the calls is not given here.

Experiments:
[1] = molecular target: Protein cereblon/Epidermal growth factor receptor (Homo sapiens, UniProt P00533+Q96SW2, T790M/C797S/L858R); assay: PROTAC activity at CRBN/EGFR L858R/T790M/C797S mutant in human H1975-TM cells assessed as induction of EGFR degradation incubated for 24 hrs by Western blot analysis; type: cell-based
[2] = Antiproliferative activity against human HI975-TM cells harboring EGFR L858R/T790M/C797S mutant assessed as inhibition of cell growth incubated for 72 hrs by CCK-8 assay; type: functional, cell-based; conditions: H1975-TM
[3] = system: Protein cereblon/Epidermal growth factor receptor (Homo sapiens), P00533+Q96SW2 [L858R,T790M,C797S]; assay: PROTAC activity at CRBN/EGFR L858R/T790M/C797S mutant in human H1975-TM cells assessed as induction of EGFR degradation by measuring remaining activity at 1.2 nM incubated for 24 hrs by Western blot analysis (reference value: 100%); type: cell-based
[4] = system: Protein cereblon/Epidermal growth factor receptor (Homo sapiens), P00533+Q96SW2 [L858R,T790M,C797S]; assay: PROTAC activity at CRBN/EGFR L858R/T790M/C797S mutant in human H1975-TM cells assessed as induction of EGFR degradation by measuring remaining activity at 100 nM incubated for 24 hrs by Western blot analysis (reference value: 100%); type: cell-based
[5] = system: Protein cereblon/Epidermal growth factor receptor (Homo sapiens), P00533+Q96SW2 [L858R,T790M,C797S]; assay: PROTAC activity at CRBN/EGFR L858R/T790M/C797S mutant in human H1975-TM cells assessed as induction of EGFR degradation by measuring remaining activity at 100 nM incubated for 3 hrs by Western blot analysis (reference value: 100%); type: cell-based
[6] = system: Protein cereblon/Epidermal growth factor receptor (Homo sapiens), P00533+Q96SW2 [L858R,T790M,C797S]; assay: PROTAC activity at CRBN/EGFR L858R/T790M/C797S mutant in human H1975-TM cells assessed as induction of EGFR degradation by measuring remaining activity at 100 nM incubated for 6 hrs by Western blot analysis (reference value: 100%); type: cell-based
[7] = system: Protein cereblon/Epidermal growth factor receptor (Homo sapiens), P00533+Q96SW2 [L858R,T790M,C797S]; assay: PROTAC activity at CRBN/EGFR L858R/T790M/C797S mutant in human H1975-TM cells assessed as induction of EGFR degradation by measuring remaining activity at 100 nM incubated for 12 hrs by Western blot analysis (reference value: 100%); type: cell-based
[8] = system: Protein cereblon/Epidermal growth factor receptor (Homo sapiens), P00533+Q96SW2 [L858R,T790M,C797S]; assay: PROTAC activity at CRBN/EGFR L858R/T790M/C797S mutant in human H1975-TM cells assessed as induction of EGFR degradation by measuring remaining activity at 100 nM preincubated for 24 hrs followed by compound washout and measured after 12 hrs by Western blot analysis (reference value: 100%); type: cell-based
[9] = system: Protein cereblon/Epidermal growth factor receptor (Homo sapiens), P00533+Q96SW2 [L858R,T790M,C797S]; assay: (§1) PROTAC activity at CRBN/EGFR L858R/T790M/C797S mutant in human H1975-TM cells assessed as induction of EGFR degradation by measuring remaining activity at 100 nM preincubated for 24 hrs followed by compound washout and measured after 24 hrs by Western blot analysis (reference value: 100%); type: cell-based
[10] = system: Protein cereblon/Epidermal growth factor receptor (Homo sapiens), P00533+Q96SW2 [L858R,T790M,C797S]; assay: PROTAC activity at CRBN/EGFR L858R/T790M/C797S mutant in human H1975-TM cells assessed as induction of EGFR degradation by measuring remaining activity at 100 nM preincubated for 24 hrs followed by compound washout and measured after 48 hrs by Western blot analysis (reference value: 100%); type: cell-based
[11] = system: Protein cereblon/Epidermal growth factor receptor (Homo sapiens), P00533+Q96SW2 [L858R,T790M,C797S]; assay: as §1, with “at 50” for “at 100”, “preincubated with lenalidomide” for “preincubated”, “for 6” for “for 24”, “compound addition” for “compound washout”; type: cell-based
[12] = system: Protein cereblon/Epidermal growth factor receptor (Homo sapiens), P00533+Q96SW2 [UNDEFINED MUTATION]; assay: (§2) PROTAC activity at CRBN/EGFR exon 19 deletion/T790M/C797S mutant in human PC-9-TM cells assessed as induction of EGFR degradation incubated for 24 hrs by Western blot analysis; type: cell-based
[13] = molecular target: T1, Protein cereblon/Epidermal growth factor receptor (Homo sapiens, UniProt P00533+Q96SW2); assay: as §2; type: cell-based
[14] = system: Protein cereblon/Epidermal growth factor receptor (Homo sapiens), P00533+Q96SW2 [L858R,T790M]; assay: (§3) PROTAC activity at CRBN/EGFR L858R/T790M mutant in human NCI-H1975 cells assessed as induction of EGFR degradation incubated for 24 hrs by Western blot analysis; type: cell-based
[15] = molecular target: Protein cereblon/Epidermal growth factor receptor (Homo sapiens, UniProt P00533+Q96SW2, T790M/L858R); assay: as §3; type: cell-based
[16] = molecular target: T1, Protein cereblon/Epidermal growth factor receptor; assay: PROTAC activity at CRBN/wildtype EGFR in human A549 cells assessed as induction of EGFR degradation incubated for 24 hrs by Western blot analysis; type: cell-based
[17] = system: PC-9; assay: Antiproliferative activity against human PC-9 cells harboring EGFR exon 19 deletion mutant assessed as inhibition of cell proliferation incubated for 72 hrs by CCK8 assay; type: functional, cell-based; conditions: PC-9, 72 h
[18] = molecular target: Ribosomal protein S6 kinase alpha-1 (Homo sapiens) (UniProt Q15418); assay: Induction of RPS6KA1 degradation in human H1975-TM cells at 50 nM incubated for 24 hrs; type: cell-based
[19] = system: Mus musculus; assay: In vivo PROTAC activity at CRBN/EGFR L858R/T790M/C797S mutant in BALB/c nude mouse xenografted with human […] cells assessed as decrease in EGFR protein level in tumor at 25 to 100 mg/kg, po administered once daily for 31 days by Western blot analysis; type: functional, organism-based; conditions: dose 25-100 mg/kg, time 31.0 day
[20] = system: Mus musculus; assay: In vivo inhibition of EGFR signaling in BALB/c nude mouse xenografted with human […] cells assessed as reduction in ERK activation at 25 to 100 mg/kg, po administered once daily for 31 days by Western blot analysis; type: functional, organism-based; conditions: dose 25-100 mg/kg, time 31.0 day
[21] = system: Mus musculus; assay: In vivo inhibition of EGFR signaling in BALB/c nude mouse xenografted with human […] cells assessed as reduction in AKT activation at 25 to 100 mg/kg, po administered once daily for 31 days by Western blot analysis; type: functional, organism-based; conditions: dose 25-100 mg/kg, time 31.0 day
[22] = Toxicity in BALB/c nude mouse xenografted with human H1975-TM cells assessed as effect on body weight at 25 to 100 mg/kg, po administered once daily for 31 days; type: organism-based; conditions: in vivo, 744 h, dose 25-100 mg/kg, time 31 day
[23] = Toxicity in BALB/c nude mouse xenografted with human H1975-TM cells assessed as heart lesions at 25 to 100 mg/kg, po administered once daily for 31 days by Hematoxylin and eosin staining based analysis; type: organism-based; conditions: in vivo, 744 h, dose 25-100 mg/kg, time 31 day
[24] = Toxicity in BALB/c nude mouse xenografted with human H1975-TM cells assessed as liver lesions at 25 to 100 mg/kg, po administered once daily for 31 days by Hematoxylin and eosin staining based analysis; type: organism-based; conditions: in vivo, 744 h, dose 25-100 mg/kg, time 31 day
[25] = AUC (0 to infinity) in male Sprague-Dawley rat at 5 mg/kg, iv measured after 24 hrs by LC-MS/MS analysis; type: ADME, organism-based; conditions: in vivo
[26] = MRT (0 to infinity) in male Sprague-Dawley rat at 5 mg/kg, iv measured after 24 hrs by LC-MS/MS analysis; type: ADME, organism-based; conditions: in vivo
[27] = Half-life in male Sprague-Dawley rat at 50 mg/kg, po measured after 24 hrs by LC-MS/MS analysis; type: ADME, organism-based; conditions: in vivo

Ribosomal protein S6 kinase alpha-1 (Homo sapiens), sequence (Q15418 whole entry): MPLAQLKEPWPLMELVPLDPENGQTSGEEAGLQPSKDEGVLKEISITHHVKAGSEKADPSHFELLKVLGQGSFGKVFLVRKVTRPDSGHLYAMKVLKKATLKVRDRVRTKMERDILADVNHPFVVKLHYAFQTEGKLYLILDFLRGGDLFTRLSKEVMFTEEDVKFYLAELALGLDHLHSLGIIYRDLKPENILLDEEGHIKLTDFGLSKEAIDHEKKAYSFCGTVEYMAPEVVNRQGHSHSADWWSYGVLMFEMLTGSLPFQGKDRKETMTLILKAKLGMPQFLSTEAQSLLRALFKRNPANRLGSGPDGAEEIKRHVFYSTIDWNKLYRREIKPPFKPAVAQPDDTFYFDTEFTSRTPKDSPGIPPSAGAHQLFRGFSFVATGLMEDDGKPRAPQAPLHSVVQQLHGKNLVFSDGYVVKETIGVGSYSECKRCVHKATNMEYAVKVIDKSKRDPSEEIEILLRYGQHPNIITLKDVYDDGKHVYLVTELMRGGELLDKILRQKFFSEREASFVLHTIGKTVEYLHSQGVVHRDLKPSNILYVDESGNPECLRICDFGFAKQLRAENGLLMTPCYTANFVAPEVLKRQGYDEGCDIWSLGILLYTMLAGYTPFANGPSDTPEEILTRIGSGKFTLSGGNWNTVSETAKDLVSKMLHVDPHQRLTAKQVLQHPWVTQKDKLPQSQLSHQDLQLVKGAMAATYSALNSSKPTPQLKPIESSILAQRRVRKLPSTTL

CCS(=O)(=O)n1cc(-c2nc(Nc3ccc(N4CCN(CCCCCCC(=O)Nc5cccc6c5CN(C5CCC(=O)NC5=O)C6=O)CC4)cc3)ncc2C(F)(F)F)c2ccccc21 (configuration not stated) showed a DC50 [1] of 10.2 nM, a pIC50 [2] of 7.99 and an Activity [3] of 107%. It also gave an Activity [4] of 2.3%, an Activity [5] of 75.7% and an Activity [6] of 65.9%. It also gave an Activity [7] of 44.5%, an Activity [8] of 49.7% and an Activity [9] of 52.9%. The Activity [10] was 66.6%, the Activity [11] was 56.4% and the Activity [12] was “Dose-Dependent Effect”. The DC50 [13] was 36.5 nM, the Activity [14] was “Dose-Dependent Effect” and the DC50 [15] was 88.5 nM. The DC50 [16] was over 300 nM, the pIC50 [17] was 7.76 and the Activity [18] was “Active”. For the same molecule, the Activity [19] was “Active”, the inhibition [20] was “Active” and the inhibition [21] was “Active”. The Activity [22] was “Non-Toxic”, the Activity [23] was “Non-Toxic” and the Activity [24] was “Non-Toxic”. It also gave an AUC(0-inf) [25] of 1800 ng·h/mL, an MRT inf [26] of 18.4 h and a half-life [27] of 10.9 h.
